Assay results from US12605468B2, “Oxazine-based fluorophore compounds for nerve-specific imaging” (Oregon Health & Science University, priority 2020, dated 2026).

system: nerve; assay: not given; settings: Park et al. Theranostics 4, 823-833 (2014); cited from earlier work

Row | SMILES | nerve-specificity
1 | CC/N=c1/cc2oc3cc(NCC)c(C)cc3nc-2cc1C [Oxazine 4] | high nerve-specificity

system: not listed separately; assay: Experimental LogD measurement (1-octanol / PBS buffer partition, absorbance readout); format: physicochemical; settings: pH 7.4, room temperature, read-out: Log D7.4
Procedure: Experimental LogD measurements. Each screening candidate was dissolved in DMSO at a concentration of 10 mM. The stock solution was sampled (2 μL) and added to a 1 mL mixture of 1-octanol and PBS buffer (equal volume). The solution was then vortexed for 30 mins at room temperature before centrifuged at 13,000 rpm for 5 minutes. The PBS buffer and 1-octanol layers were separated and measured for absorbance using a SpectraMax M5 spectrometer with a Microplate reader (Molecular Devices, Sunnyvale, CA). Sample concentration in each phase was then calculated using Beer's Law plots of absorbance versus concentration. The experimental LogD value for each screening candidates was calculated using the equation below.

Row | SMILES | logD
2 | CC/[N+](C)=c1\ccc2nc3ccc(N4CCC4)cc3oc-2c1 [LGW14-51, (E)-N-(7-(azetidin-1-yl)-3H-phenoxazin-3-ylidene)-N-methylethanaminium] | 0.5
3 | c1cc2nc3ccc(=[N+]4CCC4)cc-3oc2cc1N1CCC1 [LGW14-53, 1-(7-(azetidin-1-yl)-3H-phenoxazin-3-ylidene)azetidin-1-ium] | 0.3

Continued, values first:

Row | logD | SMILES
4 | 0.8 | CCN(CC)c1ccc2nc3ccc(=[N+]4CCC4)cc-3oc2c1 [LGW13-79, 1-(7-(diethylamino)-3H-phenoxazin-3-ylidene)azetidin-1-ium]
5 | 0.5 | CCN1CCOc2cc3nc4ccc(=[N+]5CCC5)cc-4oc3cc21 [LGW14-42, 1-(4-ethyl-3,4-dihydro-[1,4]oxazino[2,3-b]phenoxazin-8(2H)-ylidene)azetidin-1-ium]
6 | 0.1 | CN1CCOc2cc3nc4ccc(=[N+]5CCC5)cc-4oc3cc21 [LGW14-47, 1-(4-methyl-3,4-dihydro-[1,4]oxazino[2,3-b]phenoxazin-8(2H)-ylidene)azetidin-1-ium]
7 | 0.5 | c1cc2nc3ccc(=[N+]4CCC4)cc-3oc2cc1N1CCCC1 [LGW14-83, 1-(7-(pyrrolidin-1-yl)-3H-phenoxazin-3-ylidene)azetidin-1-ium]
